Assay results from patent US12606561B2, “Substituted pyrazolo[1,5-a][1,3,5]triazines as CDK inhibitors” (QURIENT CO., LTD., priority 2018, dated 2026).

Key:
CDK1/Cyclin B = biological target: T1, CDK1/Cyclin B (Homo sapiens, UniProt P06493); experiment: Enzymatic assay for CDK1 (LANCE Ultra kinase assay, FRET based); assay type: biochemical; conditions: ATP at Km; read-out: CDK1 enzymatic activity IC50
T1 construct: purchased Invitrogen PR4768C
In short: (§1)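 Inhibition of purified CDK/cyclin complexes was measured with ATP at its Km, using a ULight-labeled peptide substrate. Substrate phosphorylation was detected by FRET with a Europium-labeled anti-phospho-antibody.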

CDK2/Cyclin A = biological target: T2, CDK2/Cyclin A (Homo sapiens, UniProt P24941); experiment: Enzymatic assay for CDK2 (LANCE Ultra kinase assay, FRET based); assay type: biochemical; conditions: ATP at Km
T2 construct: purchased Invitrogen PV6290
In short: (§2)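 Inhibition was measured at ATP Km with 68 nM ULight-MBP peptide and CDK2/Cyclin A ([…]) or CDK5/p25 ([…]), using 8-dose 4-fold compound dilutions from DMSO. Kinase reaction ran 60 min at 23° C, then Eu anti-phospho-MBP plus EDTA were added for another 60 min before the fluorescence read.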

CDK5/p25 = biological target: T3, CDK5/p25 (Homo sapiens, UniProt Q00535); experiment: Enzymatic assay for CDK5 (LANCE Ultra kinase assay, FRET based); assay type: biochemical; conditions: ATP at Km
T3 construct: purchased Invitrogen PR8543B
In short: as §2

CDK7/Cyclin H/MNAT1 = biological target: T4, CDK7/Cyclin H/MNAT1 (Homo sapiens, UniProt P50613); experiment: Enzymatic assay for CDK7 (LANCE Ultra kinase assay, FRET based); assay type: biochemical; conditions: for IC50: ATP at Km
T4 construct: purchased Invitrogen PR6749B
In short: as §1

MV4-11 = experiment: Cellular MV4-11 viability assay (CellTiter-Glo, 72 hours); assay type: cell-based; conditions: Homo sapiens; MV4-11 cells
In short: (§3)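 Cells grown in RPMI-1640 with 10% FBS were seeded at 1×10^4/well (MV4-11), 5×10^3 (OVCAR-3) or 1×10^3 (A2780), then dosed 24 h later with compound at 0.0015 uM to 10 uM, DMSO <0.1%. Viability was read by CellTiter-Glo luminescence after 72 h at 37° C, in duplicate.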

A2780 = A2780 viability assay (CellTiter-Glo, 72 hours); assay type: cell-based; conditions: Homo sapiens; A2780 cells
In short: as §3

OVCAR-3 = OVCAR-3 viability assay (CellTiter-Glo, 72 hours); assay type: cell-based; conditions: Homo sapiens; OVCAR-3 cells
In short: as §3

T4 sequence (P50613 whole entry): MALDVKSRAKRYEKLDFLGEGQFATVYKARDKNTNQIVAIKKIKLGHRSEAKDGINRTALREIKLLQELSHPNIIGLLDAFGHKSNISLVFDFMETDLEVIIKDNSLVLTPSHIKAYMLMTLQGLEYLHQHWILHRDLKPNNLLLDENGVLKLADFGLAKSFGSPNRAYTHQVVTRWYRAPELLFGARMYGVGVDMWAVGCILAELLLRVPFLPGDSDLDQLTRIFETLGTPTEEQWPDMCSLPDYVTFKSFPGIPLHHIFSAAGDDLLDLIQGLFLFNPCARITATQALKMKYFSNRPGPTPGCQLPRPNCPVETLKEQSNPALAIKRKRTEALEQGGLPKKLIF
T4 sequence (P51946 whole entry partner): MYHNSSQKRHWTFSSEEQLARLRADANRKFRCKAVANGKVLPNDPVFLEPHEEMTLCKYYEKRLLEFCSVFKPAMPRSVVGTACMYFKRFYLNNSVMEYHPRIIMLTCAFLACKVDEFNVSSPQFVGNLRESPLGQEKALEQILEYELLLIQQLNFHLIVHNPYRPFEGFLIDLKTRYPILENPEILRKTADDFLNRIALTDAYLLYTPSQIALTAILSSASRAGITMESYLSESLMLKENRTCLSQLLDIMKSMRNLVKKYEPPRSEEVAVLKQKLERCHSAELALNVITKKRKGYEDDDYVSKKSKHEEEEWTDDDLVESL
T4 sequence (P51948 whole entry partner): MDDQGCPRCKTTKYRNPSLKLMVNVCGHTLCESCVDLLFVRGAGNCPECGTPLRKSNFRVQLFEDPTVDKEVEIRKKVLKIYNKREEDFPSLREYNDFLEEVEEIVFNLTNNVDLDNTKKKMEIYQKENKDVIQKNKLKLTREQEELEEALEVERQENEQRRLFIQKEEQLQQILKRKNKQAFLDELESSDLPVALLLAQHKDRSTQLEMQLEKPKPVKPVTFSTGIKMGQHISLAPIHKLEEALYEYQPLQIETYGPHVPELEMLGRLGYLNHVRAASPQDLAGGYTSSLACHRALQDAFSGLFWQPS
T3 sequence (Q00535 whole entry): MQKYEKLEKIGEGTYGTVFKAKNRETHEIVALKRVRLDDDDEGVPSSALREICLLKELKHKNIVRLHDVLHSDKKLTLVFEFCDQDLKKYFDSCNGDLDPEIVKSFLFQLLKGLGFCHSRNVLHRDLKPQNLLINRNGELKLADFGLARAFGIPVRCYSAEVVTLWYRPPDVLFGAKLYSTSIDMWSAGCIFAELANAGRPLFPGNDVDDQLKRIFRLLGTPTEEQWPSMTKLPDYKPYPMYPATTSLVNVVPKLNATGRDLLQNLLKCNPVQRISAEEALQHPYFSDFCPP
T3 sequence (Q15078 99-307 partner limits assumed): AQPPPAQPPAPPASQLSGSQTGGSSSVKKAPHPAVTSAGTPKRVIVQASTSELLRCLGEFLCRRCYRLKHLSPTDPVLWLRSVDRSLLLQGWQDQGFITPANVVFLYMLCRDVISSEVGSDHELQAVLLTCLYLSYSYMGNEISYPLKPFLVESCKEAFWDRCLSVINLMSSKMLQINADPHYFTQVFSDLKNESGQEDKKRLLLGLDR
T1 sequence (P06493 whole entry): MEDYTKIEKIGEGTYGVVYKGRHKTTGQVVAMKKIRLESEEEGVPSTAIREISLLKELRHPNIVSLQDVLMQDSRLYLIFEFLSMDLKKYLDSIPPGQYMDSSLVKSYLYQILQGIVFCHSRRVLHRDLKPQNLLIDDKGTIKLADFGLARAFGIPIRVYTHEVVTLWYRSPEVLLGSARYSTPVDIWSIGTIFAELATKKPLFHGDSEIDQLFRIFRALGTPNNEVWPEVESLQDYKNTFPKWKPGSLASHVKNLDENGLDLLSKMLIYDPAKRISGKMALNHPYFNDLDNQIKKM
T1 sequence (P14635 whole entry partner): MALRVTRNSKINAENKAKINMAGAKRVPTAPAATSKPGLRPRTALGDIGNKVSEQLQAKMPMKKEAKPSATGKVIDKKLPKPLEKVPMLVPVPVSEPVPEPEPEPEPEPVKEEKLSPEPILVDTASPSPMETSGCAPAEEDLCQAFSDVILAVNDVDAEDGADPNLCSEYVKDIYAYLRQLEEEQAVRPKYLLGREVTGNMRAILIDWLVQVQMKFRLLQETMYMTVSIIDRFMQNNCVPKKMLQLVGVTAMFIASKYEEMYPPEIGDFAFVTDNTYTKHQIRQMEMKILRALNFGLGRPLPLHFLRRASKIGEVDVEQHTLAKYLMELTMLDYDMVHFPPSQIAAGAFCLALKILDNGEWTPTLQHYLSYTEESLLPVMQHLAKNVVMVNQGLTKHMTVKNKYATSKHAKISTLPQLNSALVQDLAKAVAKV

Structure (SMILES) | IC50 (CDK1/Cyclin B) [nM] | IC50 (CDK2/Cyclin A) [nM] | IC50 (CDK5/p25) [nM] | IC50 (CDK7/Cyclin H/MNAT1) [nM] | CDK1/CDK7: Selectivity of CDK7 inhibition over CDK1 inhibition (CDK7/Cyclin H/MNAT1) | CDK2/CDK7: Selectivity of CDK7 inhibition over CDK2 inhibition (CDK7/Cyclin H/MNAT1) | CDK5/CDK7: Selectivity of CDK7 inhibition over CDK5 inhibition (CDK7/Cyclin H/MNAT1) | IC50 (MV4-11) [nM] | IC50 (A2780) [nM] | IC50 (OVCAR-3) [nM]
COC1CCN(c2nc(NCc3ccccc3-c3nccc4cc(NC(=O)/C=C/CN(C)C)ccc34)n3ncc(C(C)C)c3n2)CC1 [Compound 61] | > 1000 | > 1000 | > 1000 | < 100 | A (A indicates [fold] > 500) | A (A indicates [fold] > 500) | A (A indicates [fold] > 500) | < 1000 | < 1000 | < 1000
CC(C)c1cnn2c(NCc3ccccc3-c3nccc4cc(NC(=O)/C=C/CN(C)C)ccc34)nc(NCC3CCNC(=O)C3)nc12 (racemic) [Compound 30] | > 1000 | > 1000 | > 1000 | 100 to 1000 | B (B indicates 50 < [fold] ≤ 500) | B (B indicates 50 < [fold] ≤ 500) | B (B indicates 50 < [fold] ≤ 500) | < 1000 | < 1000 | < 1000
C/C=C/C(=O)Nc1ccc2c(-c3ccccc3CNc3cc(NC[C@H]4CCNC[C@@H]4O)nc4c(C(C)C)cnn34)nccc2c1 [Compound 72] | > 1000 | > 1000 | > 1000 | < 100 | A (A indicates [fold] > 500) | A (A indicates [fold] > 500) | A (A indicates [fold] > 500) | < 1000 | < 1000 | < 1000
CNC1CCN(c2nc(NCc3ccccc3-c3nccc4cc(NC(=O)/C=C/CN(C)C)ccc34)n3ncc(C(C)C)c3n2)CC1 [Compound 34] | > 1000 | > 1000 | > 1000 | < 100 | A (A indicates [fold] > 500) | A (A indicates [fold] > 500) | A (A indicates [fold] > 500) | < 1000 | < 1000 | < 1000
CC(C)c1cnn2c(NCc3ccccc3-c3nccc4cc(NC(=O)/C=C/CN5CCCC5)ccc34)nc(N3CCC(N)CC3)nc12 [Compound 57] | > 1000 | > 1000 | > 1000 | < 100 | A (A indicates [fold] > 500) | A (A indicates [fold] > 500) | A (A indicates [fold] > 500) | < 1000 | < 1000 | < 1000
CC(C)c1cnn2c(NCc3ccccc3-c3nccc4cc(NC(=O)/C=C/CN(C)C)ccc34)nc(NCC3CNCCO3)nc12 (racemic) [Compound 62] | > 1000 | > 1000 | > 1000 | < 100 | A (A indicates [fold] > 500) | A (A indicates [fold] > 500) | A (A indicates [fold] > 500) | < 1000 | < 1000 | < 1000
C=C(C)C(=O)Nc1ccc2c(-c3ccccc3CNc3nc(NC[C@H]4CCNC[C@@H]4O)nc4c(C(C)C)cnn34)nccc2c1 [Compound 66] | > 1000 | > 1000 | > 1000 | < 100 | A (A indicates [fold] > 500) | A (A indicates [fold] > 500) | A (A indicates [fold] > 500) | < 1000 | < 1000 | < 1000
C/C=C/C(=O)Nc1ccc2c(-c3ccccc3CNc3nc(N4CCC(N)CC4)nc4c(C(C)C)cnn34)nccc2c1 [Compound 50] | > 1000 | > 1000 | > 1000 | < 100 | A (A indicates [fold] > 500) | A (A indicates [fold] > 500) | A (A indicates [fold] > 500) | < 1000 | < 1000 | < 1000
COC/C=C/C(=O)Nc1ccc2c(-c3ccccc3CNc3nc(N4CCC(N)CC4)nc4c(C(C)C)cnn34)nccc2c1 [Compound 54] | > 1000 | > 1000 | > 1000 | < 100 | A (A indicates [fold] > 500) | A (A indicates [fold] > 500) | A (A indicates [fold] > 500) | < 1000 | < 1000 | < 1000
CC(C)c1cnn2c(NCc3ccccc3-c3nccc4cc(NC(=O)/C=C/CN(C)C)ccc34)nc(N3CCC(NC(=O)OC(C)(C)C)CC3)nc12 [Compound 75] | > 1000 | > 1000 | > 1000 | 100 to 1000 | B (B indicates 50 < [fold] ≤ 500) | B (B indicates 50 < [fold] ≤ 500) | B (B indicates 50 < [fold] ≤ 500) | < 1000 | < 1000 | < 1000
C=CC(=O)Nc1ccc2c(-c3ccccc3CNc3nc(N4CCC(N)CC4)nc4c(C(C)C)cnn34)nccc2c1 [Compound 46] | > 1000 | > 1000 | > 1000 | < 100 | A (A indicates [fold] > 500) | A (A indicates [fold] > 500) | A (A indicates [fold] > 500) | < 1000 | < 1000 | < 1000
CC(C)c1cnn2c(NCc3ccccc3-c3nccc4cc(NC(=O)/C=C/CN(C)C)ccc34)nc(NC3CCNCC3)nc12 [Compound 63] | > 1000 | > 1000 | > 1000 | < 100 | A (A indicates [fold] > 500) | A (A indicates [fold] > 500) | A (A indicates [fold] > 500) | < 1000 | 1000 to 10000 | 1000 to 10000
CC(C)c1cnn2c(NCc3ccccc3-c3nccc4cc(NC(=O)/C=C/CN5CCCCC5)ccc34)nc(N3CCC(N)CC3)nc12 [Compound 52] | > 1000 | > 1000 | > 1000 | < 100 | A (A indicates [fold] > 500) | A (A indicates [fold] > 500) | A (A indicates [fold] > 500) | < 1000 | < 1000 | < 1000
